Reference: US20040018983A1, “Antifungal compositions” (Achillion Pharmaceuticals, Inc., priority 2001, published 2004)
In brackets after ≈: the same amount, converted by molar mass. Where two headings read alike, the source gives them in different places.

Tested on: C. albicans
Experiment: Fungal susceptibility to zinc finger selective antifungals: broth microdilution growth inhibition (OD 405 nm), with and without a zinc finger blocking compound
Assay type: cell-based, Candida albicans
Conditions: for MIC: Candida albicans, 48 h, read-out: C. albicans MIC; for blocking of antifungal action by glutathione and cysteine (zinc finger mechanism): discussion of Table 2; for Fold Increase: increase of MIC with blocking compound (cysteine or glutathione) over MIC alone; for C. albicans MIC + 200 μg/ml cysteine: with 200 μg/ml cysteine as zinc finger blocking compound; for C. albicans MIC + 200 μg/ml glutathione: with 200 μg/ml glutathione as zinc finger blocking compound
Experimental: A panel of Candida clinical isolates (including azole-resistant species) plus single isolates of Aspergillus fumigates, were used to evaluate the activity of the test compounds in vitro. Inocula were prepared as broth cultures (yeasts) or as suspensions of fungal material made from agar slope cultures (molds). The test compounds were pipetted from DMSO stock solution into water to provide a series of […] dilutions. […] (other fungi). Growth in the microcultures was measured by its optical density (OD) measured at a wavelength of 405 nm. The OD for cultures with test compounds was calculated as a percentage of the control, drug-free OD. Inhibition of growth to 35% of control or less was recorded as significant inhibition (Table 2).

[1] = no blocking compound, CYG medium, 2 days at 37° C., inhibition of growth to 35% of control or less

SMILES | MIC [1] [µg/mL] | blocking of antifungal action by glutathione and cysteine (zinc finger mechanism) | Fold Increase [Fold] | C. albicans MIC + 200 μg/ml cysteine [µg/mL] | C. albicans MIC + 200 μg/ml glutathione [µg/mL] | MIC [µg/mL]
Cc1ccccc1N=O [Compound 4, 2-nitrosotoluene] | 16 (≈ 132 µM) | not blocked by either glutathione or cysteine | 0 | 16 | 16 | 
CN(C)c1ccc(N=O)cc1 [Compound 9, 4-nitroso-N,N-dimethylaniline] |  | blocked to a somewhat different extent by the two different blocking compounds, but in both cases the effect is significant |  |  |  | 
O=Nc1ccc2oc(=O)ccc2c1 [Compound 2, 6-nitroso-1,3-benzopyrene] | 4 (≈ 22.8 µM) |  | 4 | 16 | 16 | 
O=Nc1ccc(Nc2ccccc2)cc1 [Compound 12, 4-nitrosodiohenylamine] |  |  | 8 | 16 | 16 | 2 (≈ 10.1 µM)
c1csc(SSc2cccs2)c1 [Compound 6, di(2-thienyl)disulphide] | 8 (≈ 34.7 µM) |  | 2 | 16 | 16 | 
